SMILES strings stand for the structures. Counter-ions that a name gives are not always drawn. Some results are limits rather than exact numbers.

For 25 molecules, IC50 results are on record in US20100120798A1, “SUBSTITUTED PIPERIDINES CONTAINING A HETEROARYLAMIDE OR HETEROARYLPHENYL MOIETY” (ASTEX THERAPEUTICS LIMITED, priority 2006, published 2010).

The experiment in a line: In vitro MDA-MB-468 human breast adenocarcinoma GSK-3 phosphorylation assay. The experiment is classed as cell-based. The note with it: mean IC50, MDA-MB-468 cells, 2 hours with compound, phospho-GSK-3β. From the text:
This assay determines the ability of test compounds to inhibit phosphorylation of Serine-9 residue in Glycogen Synthase Kinase-3beta (GSK-3β) as a surrogate marker of cellular PKB (Akt) activity, as assessed using Acumen Explorer Fluorescent Plate-Reader technology. A MDA-MB-468 human breast adenocarcinoma cell line (LGC Promochem, Teddington, Middlesex, UK, Catalogue No. HTB-132) was routinely maintained in Dulbecco's modified Eagle's growth medium (DMEM; Invitrogen Limited, Paisley, UK Catalogue No. 11966-025) containing 10% heat-inactivated foetal calf serum (FCS; Sigma, Poole, Dorset, UK, Catalogue No. F0392) and 1% L-glutamine (Gibco, Catalogue No. 25030-024) at 37° C. with 5% CO2 up to a confluency of 70-90%.
For the phosphorylation assay, the cells were detached from the culture flask using Trypsin-EDTA (Invitrogen Limited, Catalogue No. 25300-062) and seeded into the wells of a black transparent-bottom Corning Costar Polystyrene 96 well plate (Fisher Scientific UK, Loughborough, Leicestershire, UK; Catalogue No. 3904 and DPS-130-020K) at a density of 5000 cells per well in 100 μl of complete growth media. The cells were incubated overnight at 37° C. with 5% CO2 to allow them to adhere.
On day 2, the cells were treated with test compounds and incubated for 2 hours at 37° C. with 5% CO2. Test compounds were prepared as 10 mM stock solutions in DMSO and dosed directly to required concentration into test wells using non-contact (acoustic dispensing of multiple 2.5 nl droplets directly into assay wells) ECHO dosing technology (Labcyte Inc. Sunnyvale, Calif., USA). Each plate contained control wells without test compound.
20 μl of fixing buffer (Phosphate Buffered Saline (PBS) containing 10% formaldehyde; Sigma; Catalogue No. F1635) was then added to each well to give a final well concentration 1.6%. Plates were then incubated for 30 minutes at room temperature prior to the fixative being removed. Each well was washed once with 250 μl of PBS and then 50 μl PBS added to each well. PBS was then aspirated and cells permeabilised and blocked by incubating each well with 50 μl of permeabilisation/blocking buffer (PBS containing 0.5% Tween 20 (Sigma; Catalogue No. P5927) and 5% Marvel Milk Powder (Andrews Pharmacy Ltd, Macclesfield, Cheshire, UK; Catalogue No. APC100199)) for 1 hour at room temperature prior to staining.
Following removal of Perm/Block buffer, 50 μl of primary anti-phospho-GSK-3β antibody (Cell Signalling Technology (New England Biolabs (Uk) Ltd.), Hitchin, Hertfordshire, UK; Catalogue No. 9336 diluted 1:400 in Blocking buffer (PBS containing 5% Marvel and 0.05% Tween/Polysorbate 20) was added to each well and incubated overnight at 4° C.
Each well was washed three times in 250 μl of wash buffer (PBS containing 0.05% polysorbate 20), and cells incubated for 1 hour at room temperature with 50 μl of secondary fluorescently-labelled anti-rabbit Alexa Fluor 488 antibody (Molecular Probes, Invitrogen Limited, Catalogue No. A11008) diluted 1:750 in blocking buffer. Plates were washed three times in 250 μl of wash buffer and stored containing 50 μl of PBS at 4° C. until required.
Plates were analysed using an Acumen Explorer Plate-reader to quantify level of fluorescent signal that represents quantity of phosphorylated-GSK-3β.
IC50 calculation—IC50 is the concentration of compound required to give 50% effect over the range of activity affected by the compound, between maximum (no compound) and minimum (excess level of compound) response control data. IC50 values were determined by fitting background corrected, dose response assay data to a 4 parameter logistic curve fit equation model with the minimum response set to zero. This was done using an in-house developed algorithm within the Origin graphing software package (OriginLab Corporation, Northampton, Mass., USA). […]

As for `Cc1cc(CNC(=O)C2(N)CCN(c3ncnc4[nH]ccc34)CC2)on1` [Example 49, 4-Amino-1-(7H-pyrrolo[2,3-d]pyrimidin-4-yl)-piperidine-4-carboxylic acid (3-methyl-isoxazol-5-ylmethyl)-amide], the IC50 was found to be 4.2 µM.

Regarding `NCC1(C(=O)Nc2ccc(C(F)(F)F)cn2)CCN(c2ncnc3[nH]ccc23)CC1` [Example 61, 4-(Aminomethyl)-1-(7H-pyrrolo[2,3-d]pyrimidin-4-yl)-N-(5-(trifluoromethyl)pyridin-2-yl)piperidine-4-carboxamide], the IC50 worked out at 0.047 µM.

For the molecule `NC1(C(=O)NCc2ccc(Cl)s2)CCN(c2ncnc3[nH]ccc23)CC1` [Example 39, 4-Amino-N-[(5-chlorothiophen-2-yl)methyl]-1-(7H-pyrrolo[2,3-d]pyrimidin-4-yl)piperidine-4-carboxamide], the IC50 was 0.3 µM.

For `NC1(C(=O)NCc2cc(-c3ccc(Cl)cc3)no2)CCN(c2ncnc3[nH]ccc23)CC1` [Example 44, 4-amino-N-[[3-(4-chlorophenyl)-1,2-oxazol-5-yl]methyl]-1-(7H-pyrrolo[2,3-d]pyrimidin-4-yl)piperidine-4-carboxamide], the IC50 was 19 µM.

On to `Cn1cc(-c2cccc(C3(CN)CCN(c4ncnc5[nH]ccc45)CC3)c2)cn1` [Example 51, (4-(3-(1-Methyl-1H-pyrazol-4-yl)phenyl)-1-(7H-pyrrolo[2,3-d]pyrimidin-4-yl)piperidin-4-yl)methanamine], for which the IC50 is less than 0.017 µM.

Regarding `Cn1cc(-c2cccc(C3(CNC(=O)CN)CCN(c4ncnc5[nH]cnc45)CC3)c2)cn1` [Example 35, 2-amino-N-((4-(3-(1-methyl-1H-pyrazol-4-yl)phenyl)-1-(9H-purin-6-yl)piperidin-4-yl)methyl)acetamide], the IC50 worked out at 1.3 µM.

Regarding `NCC1(C(=O)NCc2cc3ccccc3[nH]2)CCN(c2ncnc3[nH]ccc23)CC1` [Example 26, N-((1H-Indol-2-yl)methyl)-4-(aminomethyl)-1-(7H-pyrrolo[2,3-d]pyrimidin-4-yl)piperidine-4-carboxamide], the IC50 was determined as 0.023 µM.

In the case of `Cc1ccncc1-c1cccc(C2(CN)CCN(c3ncnc4[nH]ccc34)CC2)c1` [Example 74, [4-[3-(4-methylpyridin-3-yl)phenyl]-1-(7H-pyrrolo[3,2-e]pyrimidin-4-yl)piperidin-4-yl]methanamine], the IC50 turned out to be 0.055 µM.

Consider `Cc1csc(CNC(=O)C2(N)CCN(c3ncnc4[nH]ccc34)CC2)n1` [Example 40, 4-Amino-N-[(4-methyl-1,3-thiazol-2-yl)methyl]-1-(7H-pyrrolo[2,3-d]pyrimidin-4-yl)piperidine-4-carboxamide], for which the IC50 was 3.4 µM.

As for `Cn1cc(CNC(=O)C2(N)CCN(c3ncnc4[nH]ccc34)CC2)cn1` [Example 45, 4-amino-N-[(1-methylpyrazol-4-yl)methyl]-1-(7H-pyrrolo[2,3-d]pyrimidin-4-yl)piperidine-4-carboxamide], the IC50 was more than 19 µM.

For the molecule `CN(C)CC1(c2cccc(-c3cnn(C)c3)c2)CCN(c2ncnc3[nH]cnc23)CC1` [Example 32, N,N-dimethyl-1-(4-(3-(1-methyl-1H-pyrazol-4-yl)phenyl)-1-(9H-purin-6-yl)piperidin-4-yl)methanamine], the IC50 came to 0.29 µM.

With `NCC1(C(=O)NCc2cc3ccccc3[nH]2)CCN(c2ncnc3[nH]nc(Br)c23)CC1` [Example 25, N-((1H-Indol-2-yl)methyl)-4-(aminomethyl)-1-(3-bromo-1H-pyrazolo[3,4-d]pyrimidin-4-yl)piperidine-4-carboxamide], the IC50 was determined as 0.01 µM.

With `Cc1cnc(NC(=O)C2(CN)CCN(c3ncnc4[nH]cnc34)CC2)s1` [Example 72, 4-(Aminomethyl)-N-(5-methylthiazol-2-yl)-1-(9H-purin-6-yl)piperidine-4-carboxamide], the IC50 was 0.31 µM.

On to `NCC1(C(=O)Nc2ccc(F)cn2)CCN(c2ncnc3[nH]ccc23)CC1` [Example 60, 4-(aminomethyl)-N-(5-fluoropyridin-2-yl)-1-(7H-pyrrolo[2,3-d]pyrimidin-4-yl)piperidine-4-carboxamide], for which the IC50 amounted to 0.33 µM.

Turning to `NCC1(C(=O)Nc2ccc(C(F)(F)F)nc2)CCN(c2ncnc3[nH]ccc23)CC1` [Example 82, 4-(Aminomethyl)-1-(7H-pyrrolo[2,3-d]pyrimidin-4-yl)-N-(6-(trifluoromethyl)pyridin-3-yl)piperidine-4-carboxamide], the IC50 stood at 0.054 µM.

In the case of `NC1(C(=O)NCc2cc(Br)no2)CCN(c2ncnc3[nH]ccc23)CC1` [Example 48, 4-Amino-1-(7H-pyrrolo[2,3-d]pyrimidin-4-yl)-piperidine-4-carboxylic acid (3-bromo-isoxazol-5-ylmethyl)-amide], the concentration for half-maximal inhibition (IC50) amounted to 0.38 µM.

As for `NCC1(C(=O)NCc2ccc(C(F)(F)F)nc2)CCN(c2ncnc3[nH]ccc23)CC1` [Example 27, 4-(Aminomethyl)-1-(7H-pyrrolo[2,3-d]pyrimidin-4-yl)-N-((6-(trifluoromethyl)pyridin-3-yl)methyl)piperidine-4-carboxamide], the IC50 was determined as 0.11 µM.

As to `NC1(C(=O)NCc2cnc3ccccc3c2)CCN(c2ncnc3[nH]ccc23)CC1` [Example 41, 4-Amino-1-(7H-pyrrolo[2,3-d]pyrimidin-4-yl)-N-(quinolin-3-ylmethyl)piperidine-4-carboxamide], the half-inhibitory concentration (IC50) came to 4.1 µM.

With `NCC1(c2cccc(-c3cccnc3)c2)CCN(c2ncnc3[nH]ccc23)CC1` [Example 76, [4-(3-pyridin-3-ylphenyl)-1-(7H-pyrrolo[3,2-e]pyrimidin-4-yl)piperidin-4-yl]methanamine], the IC50 amounted to 0.033 µM.

Turning to `NC1(C(=O)NCc2csc(-c3ccccc3)n2)CCN(c2ncnc3[nH]ccc23)CC1` [Example 42, 4-Amino-N-[(2-phenyl-1,3-thiazol-4-yl)methyl]-1-(7H-pyrrolo[2,3-d]pyrimidin-4-yl)piperidine-4-carboxamide], the IC50 is 7.1 µM.

Take `NCC1(c2cccc(-c3cncnc3)c2)CCN(c2ncnc3[nH]ccc23)CC1` [Example 77, [4-(3-pyrimidin-5-ylphenyl)-1-(7H-pyrrolo[3,2-e]pyrimidin-4-yl)piperidin-4-yl]methanamine]: the IC50 was determined as 0.035 µM.

On to `NC1(C(=O)NCc2ccc(C(F)(F)F)nc2)CCN(c2ncnc3[nH]ccc23)CC1` [Example 14, 4-amino-1-(7H-pyrrolo[2,3-d]pyrimidin-4-yl)-piperidine-4-carboxylic acid (6-trifluoromethyl-pyridin-3-ylmethyl)-amide hydrochloride], for which the IC50 stood at 1.4 µM.

Turning to `Cn1cc(-c2cccc(C3(C(N)=O)CCN(c4ncnc5[nH]cnc45)CC3)c2)cn1` [Example 37, 4-[3-(1-methylpyrazol-4-yl)phenyl]-1-(9H-purin-6-yl)piperidine-4-carboxamide], the IC50 is more than 30 µM.

In the case of `NC1(C(=O)Nc2cccc(-c3nc4ccccc4o3)c2)CCN(c2ncnc3[nH]ccc23)CC1` [Example 52, 4-Amino-1-(7H-pyrrolo[2,3-d]pyrimidin-4-yl)-piperidine-4-carboxylic acid (3-benzooxazol-2-yl-phenyl)-amide], the 50% inhibitory concentration (IC50) is 5.1 µM.

Regarding `Cn1cc(-c2cc(F)cc(C3(CN)CCN(c4ncnc5[nH]ccc45)CC3)c2)cn1` [Example 70, (4-(3-fluoro-5-(1-methyl-1H-pyrazol-4-yl)phenyl)-1-(7H-pyrrolo[2,3-d]pyrimidin-4-yl)piperidin-4-yl)methanamine], the IC50 came to 0.059 µM.
